From PMC3390344, “Antibacterial Activity and Mechanism of a Scorpion Venom Peptide Derivative In Vitro and In Vivo” (PLoS ONE, 2012)
Ends that are not written are not given here.

Legend:
S. aureus AB94004 [1] = assay: Growth inhibitory assay (growth curves); assay type: cell-based; details: at a concentration of MICs; measurements at 630 nm, 96-well plates; Figure 2A
Method: (§1) Figure 2 Gowth inhibitory activities of Kn2-7. (A) Growth curves of S. aureus AB94004 treated with Kn2-7, BmKn2 or antibiotics. (B) Growth curves of MRSA P1386 treated with Kn2-7, BmKn2 or antibiotics. (C) Growth curves of E. coli AB94012 treated with Kn2-7, BmKn2 or antibiotics.
(§2) The time growth curves of S. aureus and MRSA treated with BmKn2 or its derivatives were determined based on measurements taken at 630 nm at each time point. Different concentrations of peptide were added to the tested strains, which were cultured in 96-well plates using the same method as was used for determining the MIC.

E. coli AB94012 [2] = assay: Growth inhibitory assay (growth curves); assay type: cell-based; details: at a concentration of 6.25 µg/mL; Figure 2C
Method: as §1, §2

Biolayer interferometry = assay type: binding, S. aureus; details: 10 µg/mL biotinylated peptide on biosensor tips, 500 µg/mL LTA, 10 mM HEPES pH 7.4, 0.14 M NaCl, 30°C
Method: Figure 7 Binding assay of Kn2-7 and LTA or LPS. (A) Interaction of 10 µg/ml of Kn2-7 with 500 µg/ml of LPS or 500 µg/mL of LTA. Curve A3 is LPS, curve B3 is LTA and curve C3 is buffer. (B) Interaction of 10 µg/mL of BmKn2 with 500 µg/mL of LPS or 500 µg/mL of LTA. Curve D3 is LPS, curve E3 is LTA and curve F3 is the buffer. (C) MICs of Kn2-7 and BmKn2 treated with LTA or LPS against S. aureus and E. coli.
Biolayer Interferometry (BLI) experiments were performed on OCT RED (FortéBio, Inc.). A total of 500 µg/mL of lipoteichoic acid from S. aureus (LTA, Sigma, L2515), lipopolysaccharides from E. coli (LPS, Sigma, L2880) or buffer (10 mM HEPES, pH 7.4 and 0.14 M NaCl) was dispensed into 96-well microtiter plates at a volume of 200 µl per well. The operating temperature was 30°C. Biosensor tips (FortéBio, Inc., Menlo Park, CA) were pre-wetted with the buffer for 60 seconds at baseline. Then, 10 µg/mL Biotin-Kn2-7 or Biotin-BmKn2 was loaded onto the biosensor tips for 900 seconds. Baseline 2 was subsequently established for 300 seconds. Dissociation of Kn2-7 or BmKn2 occurred for 900 seconds in the buffer. Data were generated automatically by the Octet® User Software (version 3.1) and were subsequently analyzed from the resultant text files using Excel 2000.

MRSA P1386 = assay: Growth inhibitory assay (growth curves); assay type: cell-based, S. aureus; details: measurements at 630 nm, 96-well plates; Figure 2B
Method: as §1, §2

S. aureus AB94004 [3] = assay type: cell-based; details: for MIC S.aureus, substance alone: controls of the competition assay (Figure 7C): untreated peptide, or LTA / LPS alone
Method: To confirm the results of the BLI titrations, 250 µg/mL of Kn2-7 or BmKn2 was mixed with an equal volume of 1 mg/mL LTA or LPS. Then, the MICs of Kn2-7 or BmKn2 mixed with LTA against S. aureus and E. coli were measured. […] The MICs of Kn2-7 and BmKn2 treated with LTA against S. aureus were 25 and 12.5 µg/mL, respectively.
A total of 250 µg/mL of each peptide solution was mixed with an equal volume of 1 mg/mL of the LTA or LPS solution. Then, the MICs of BmKn2 and Kn2-7 treated with LTA or LPS against S. aureus AB94004 and E. coli AB94012 were measured.

E. coli AB94012 [4] = assay: Bactericidal assay (time-killing); assay type: cell-based; details: samples at 0, 5, 15, 30, 60 min, colony counts, average of three dishes
Method: Figure 5 Bactericidal assays of the Kn2-7 and BmKn2 peptides against S. aureus and E. coli AB94012. Set point indicates untreated bacteria, and 0 minutes was defined as the time of the first sample collection, which was immediately after mixing bacteria and Kn2-7 or BmKn2. The other samples were collected at 5 min, 15 min, 30 min or 60 min. All of the counts were the average of three dishes, and the experiment was repeated at least three times. (A) Time-killing curve of Kn2-7 against S. aureus AB94004. (B) Time-killing curve of BmKn2 against S. aureus AB94004. (C) Time-killing curve of Kn2-7 against E. coli AB94012.
Bactericidal curves for Kn2-7 and BmKn2 were determined against S. aureus AB94004 and E. coli AB94012. A 400 µl aliquot of the peptide solution was added to 1,600 µl of a bacterial suspension. At each time point, 200 µl of the treated bacterial suspension was transferred to a sterilized 1.5-ml tube. After centrifugation at 1,000×g for 5 min, the supernatant was removed, and the pellet was resuspended in 200 µl of LB medium. The bacterial suspensions were placed on agar plates and incubated at 37°C until viable colonies could be counted.

S. aureus AB94004 [5] = assay: Enzyme release assay (catalase); assay type: cell-based; details: S. aureus AB94004, 37°C; 0.9% saline negative control; Figure 4C
Method: (§3) Figure 4 Secondary structure and enzyme release assay of Kn2-7. (A) and (B) Secondary structure analysis of the Kn2-7 and BmKn2 peptides. (A) Circular dichroism spectra of 0.1 mg/mL of Kn2-7 in water, 30% TFE/H2O or 70% TFE/H2O. (B) Circular dichroism spectra of 0.1 mg/mL of BmKn2 in water, 30% TFE/H2O or 70% TFE/H2O. (C) and (D) Enzyme release assay. (C) S. aureus AB94004 treated with Kn2-7 or BmKn2 was harvested, and the catalase activities of the supernatants were measured; 0.9% saline was used as the negative control, and ampicillin sodium was used as the antibiotic control. (D) E. coli AB94012 treated with Kn2-7 or BmKn2 was harvested, and the catalase activities in the supernatants were measured; 0.9% saline was used as the negative control, and kanamycin was used as the antibiotic control.
(§4) Bacterial suspensions and serial-diluted peptides were mixed at a ratio of 4∶1 in different tubes with a final volume of 2 ml. The mixtures were then incubated at 37°C with continuous shaking. At each time point, 200 µl of the treated bacterial suspension was transferred to sterilized tubes. After centrifugation, the supernatants were transferred to a sterilized 1.5-ml tube, and catalase activity was measured with a Catalase Assay Kit (Beyotime, Jiangsu, China) using the method for measuring peroxidase activity.

E. coli AB94012 [6] = assay: Enzyme release assay (catalase); assay type: cell-based; details: E. coli AB94012, 37°C; 0.9% saline negative control; Figure 4D
Method: as §3, §4

Row | Substance | Growth inhibition of S. aureus (growth curve) (S. aureus AB94004 [1]) | Growth inhibition of E. coli AB94012 (growth curve) (E. coli AB94012 [2]) | Binding to LTA (BLI) (Biolayer interferometry) | Growth inhibition of MRSA P1386 (growth curve) (MRSA P1386) | MIC S.aureus, peptide treated with LPS (S. aureus AB94004 [3]; 250 µg/mL peptide mixed with equal volume of 1 mg/mL LPS) | MIC S.aureus, peptide treated with LTA (S. aureus AB94004 [3]; 250 µg/mL peptide mixed with equal volume of 1 mg/mL LTA) | MIC S.aureus, substance alone (S. aureus AB94004 [3]) | Bactericidal effect (time-killing curve) (E. coli AB94012 [4]) | Catalase activity of the supernatant over time (S. aureus AB94004 [5]) | Catalase activity of the supernatant over time (E. coli AB94012 [6])
1 | FIGAIARLLSKIF-NH2 [BmKn2] | inhibited the growth of S. aureus completely | had no effect against E. coli AB94012 | bound strongly | inhibited the growth of MRSA P1386 completely | 6.25 µg/mL | 12.5 µg/mL | 6.25 µg/mL | not able to kill E. coli AB94012 | almost the same catalase activity at each time point | low catalase activity at each time point
2 | FIKRIARLLRKIF [Kn2-7] | inhibited the growth of S. aureus completely | inhibited the growth of E. coli AB94012 | bound strongly | inhibited the growth of MRSA P1386 completely | – | – | 3.13 µg/mL | able to kill E. coli AB94012 rapidly | almost the same catalase activity at each time point | nearly the same high enzymatic activity at each time point
